Test results as given in US20220031611A1, “IMMUNOSUPPRESSIVE DOSAGE FORMS AND METHODS OF USE” (Gemini Laboratories, LLC, priority 2018, published 2022).

Assay: Storage stability: % assay of Tacrolimus
Type: physicochemical
Settings: active pharmaceutical ingredient (API) lot, comparator
Description: The pharmaceutical formulations disclosed herein may comprise oral formulations having improved solubility and/or stability profiles. The formulations may be suitable for oral delivery, for example via a solution or suspension. The formulations orally administrated via a solution or suspension can be bioequivalent to formulations administered via oral capsules, or any other administration route. The formulations disclosed herein are stable under standard storage conditions or accelerated conditions. The total amount of impurities in the formulations may be not more than about 0.1 to 3%, and standard storage conditions may comprise a temperature of about 20 to 25° C. (i.e., room temperature) and no more than about 40% Relative Humidity (RH). In one embodiment, the formulations disclosed herein are stable at room temperature for 18 to 24 months or longer. The stability of a formulation according to the present disclosure can be determined, for example, by measuring the physical state of the formulation, including the viscosity and presence of any discoloration and chemical stability by measuring assay of API & related compound. Tables 4 and 5 present stability characteristics of the compositions provided in Examples 1 & 2 above. The following Tables 8-9 show purity of a Tacrolimus oral solution of 1 mg/ml as a percent assay, based on the batch descriptions in Table 7. […]

% Assay: 97.1%
Structure (SMILES): C=CC[C@@H]1/C=C(\C)C[C@H](C)C[C@H](OC)[C@H]2O[C@@](O)(C(=O)C(=O)N3CCCC[C@H]3C(=O)O[C@H](/C(C)=C/[C@@H]3CC[C@@H](O)[C@H](OC)C3)[C@H](C)[C@@H](O)CC1=O)[C@H](C)C[C@@H]2OC [API_Lot # DMP (079)-38, Tacrolimus]
